Here are results for 13 compounds from patent publication US20110190235A1, “BORON-CONTAINING SMALL MOLECULES AS ANTIPROTOZOAL AGENTS” (Anacor Pharmaceuticals, Inc., priority 2009, published 2011).

Structures are written as SMILES. Converted amounts (≈) assume the structure as drawn. Read-outs that look alike come from different tables or passages of the source. Some results are limits rather than exact numbers.

Broadly, the IC50 is the midpoint of a concentration-inhibition curve.

Data set [1] deals with bloodstream-form trypanosome T. brucei brucei 427 strain. Put plainly: Trypanosoma brucei brucei high-throughput in vitro drug sensitivity assay (resazurin). The data set is classed as cell-based. As to conditions: for IC50: Trypanosoma brucei, 72 hrs incubation; for Selectivity Index (L929 IC50 / T. b. brucei IC50): T. b. brucei vs L929. In general terms: Resazurin is reduced to fluorescent resorufin, in cell work by metabolically active cells.

A short description of data set [2]: L929 cytotoxicity evaluation (resazurin). To be noted: mouse, L929 mouse fibroblast cells; 72 hrs incubation; read-out: Cytotox L-929 IC50. The data set is classed as cell-based. The procedure: For evaluation of compound effects on mammalian cells, L929 mouse fibroblast cells were used. Cells were maintained as adherent cultures in T-25 vented cap flasks in a humidified incubator at 37° C. in the presence of 5% CO2. Culture media was D-MEM supplemented with 10% fetal bovine serum and 1% penicillin/streptomycin. L929 cells were maintained below confluent levels by sub-culturing at 1:10 dilution twice weekly using 0.05% trypsin for detachment.
Sub-confluent L929 cells were trypsinized, resuspended in fresh media and 10 uL was counted using hemocytometer to determine cell concentration. Cells were diluted to 1×10^4/mL in DMEM, dispensed (100 uL) into 96-well plates using a Multidrop 384 dispenser and allowed to attach overnight. Spent media was replaced with 99.5 uL fresh D-MEM and compounds to be tested were serially diluted in DMSO and 0.5 uL added using a Biomek NX liquid handler. Plates were incubated with compounds for 72 hrs at 37° C. with 5% CO2. Resazurin (20 uL of 12.5 mg/ml stock) from Sigma-Aldrich was added to each well and plates were incubated for an additional 3-4 hrs. Assay plates were read using an EnVision plate reader at an excitation wavelength of 544 nm and emission of 590 nm. Single data points were used to generate sigmoidal dose response curves and determine IC50 values using XLfit curve fitting software from IDBS (Guildford, UK).

Regarding `CC1(C)OB(O)c2cc(NC(=O)c3ccc(Cl)cc3Br)ccc21` [compound 75, 2-Bromo-4-chloro-N-(1-hydroxy-3,3-dimethyl-1,3-dihydro-benzo[c][1,2]oxaborol-6-yl)-benzamide], the IC50 in data set [1] (read-out: T.b. brucei IC50) stood at 0.405 µg/mL. The IC50 at 72 h in data set [2] was over 10 µg/mL.

Consider `CC1OB(O)c2cc(NC(=O)c3cccc(Cl)c3)ccc21` (stereo not shown) [compound 11, 3-Chloro-N-(1-hydroxy-3-methyl-1,3-dihydro-benzo[c][1,2]oxaborol-6-yl)-benzamide], for which the “Selectivity Index (L929 IC50 / T. b. brucei IC50)” value in data set [1] was found to be 168. Besides, the IC50 in data set [1] (read-out: T. b. brucei IC50) stood at 119 nM; in data set [1] (read-out: T.b. brucei IC50) it was 0.036 µg/mL. For the same compound, in data set [2], the IC50 at 72 h is 6.06 µg/mL (≈ 20.1 µM).

Turning to `CCCc1ccc(C(=O)Nc2ccc3c(c2)B(O)OC3(C)C)c(Cl)c1` [compound 102, 2-Chloro-N-(1-hydroxy-3,3-dimethyl-1,3-dihydro-benzo[c][1,2]oxaborol-6-yl)-4-propyl-benzamide], the IC50 in data set [1] (read-out: T.b. brucei IC50) was found to be 0.125 µg/mL. In addition, the IC50 at 72 h in data set [2] is over 10 µg/mL.

Turning to `CC1(C)OB(O)c2cc(NC(=O)c3cccc(C(F)(F)F)c3)ccc21` [compound 35, N-(1-Hydroxy-3,3-dimethyl-1,3-dihydro-benzo[c][1,2]oxaborol-6-yl)-3-trifluoromethyl-benzamide], in data set [1] (read-out: T.b. brucei IC50), the IC50 came out at 2.74 µg/mL. In data set [2], the IC50 at 72 h was over 10 µg/mL.

`CC1(C)OB(O)c2cc(NC(=O)c3cc(C(F)(F)F)ccc3C(F)(F)F)ccc21` [compound 81, N-(1-Hydroxy-3,3-dimethyl-1,3-dihydro-benzo[c][1,2]oxaborol-6-yl)-2,5-bis-trifluoromethyl-benzamide]: the IC50 in data set [1] (read-out: T.b. brucei IC50) is 0.183 µg/mL. The IC50 at 72 h in data set [2] was over 10 µg/mL.

`CC1(C)OB(O)c2cc(NC(=O)c3ccc(F)cc3Br)ccc21` [compound 74, 2-Bromo-4-fluoro-N-(1-hydroxy-3,3-dimethyl-1,3-dihydro-benzo[c][1,2]oxaborol-6-yl)-benzamide]: the “Selectivity Index (L929 IC50 / T. b. brucei IC50)” value in data set [1] is over 18. Moreover, the figures for the concentration for half-maximal inhibition (IC50) in data set [1] (read-out: T. b. brucei IC50) and in data set [1] (read-out: T.b. brucei IC50) were 1490 nM and 0.564 µg/mL, respectively. Also, in data set [2], the half-maximal inhibitory concentration (IC50) at 72 h is over 10 µg/mL.

For the compound `Cc1ccc(Cl)c(C(=O)Nc2ccc3c(c2)B(O)OC3(C)C)c1F` [compound 108, 6-Chloro-2-fluoro-N-(1-hydroxy-3,3-dimethyl-1,3-dihydro-benzo[c][1,2]oxaborol-6-yl)-3-methyl-benzamide], in data set [1] (read-out: T.b. brucei IC50), the IC50 amounted to 0.378 µg/mL. In addition, the half-maximal inhibitory concentration (IC50) at 72 h in data set [2] was over 10 µg/mL.

For the compound `CC1(C)OB(O)c2cc(NC(=O)c3ccc(C(F)(F)F)cc3C(F)(F)F)ccc21` [compound 79, N-(1-Hydroxy-3,3-dimethyl-1,3-dihydro-benzo[c][1,2]oxaborol-6-yl)-2,4-bis-trifluoromethyl-benzamide], the IC50 in data set [1] (read-out: T.b. brucei IC50) worked out at 1.1 µg/mL. Besides, in data set [2], the IC50 at 72 h is over 10 µg/mL.

Turning to `CC(C)Cc1ccc(C(=O)Nc2ccc3c(c2)B(O)OC3(C)C)c(Cl)c1` [compound 103], in data set [1] (read-out: T.b. brucei IC50), the IC50 was found to be 0.184 µg/mL. The IC50 at 72 h in data set [2] is over 10 µg/mL.

Take `C=CCc1ccc(C(=O)Nc2ccc3c(c2)B(O)OC3(C)C)c(Cl)c1` [compound 98, 4-Allyl-2-chloro-N-(1-hydroxy-3,3-dimethyl-1,3-dihydro-benzo[c][1,2]oxaborol-6-yl)-benzamide]: the IC50 in data set [1] (read-out: T.b. brucei IC50) is 0.091 µg/mL. Further, the IC50 at 72 h in data set [2] was over 10 µg/mL.

Take `CC1(C)OB(O)c2cc(NC(=O)c3c(F)c(F)c(F)c(F)c3F)ccc21` [compound 110, 2,3,4,5,6-Pentafluoro-N-(1-hydroxy-3,3-dimethyl-1,3-dihydro-benzo[c][1,2]oxaborol-6-yl)-benzamide]: the IC50 in data set [1] (read-out: T.b. brucei IC50) was over 5 µg/mL. Also, the IC50 at 72 h in data set [2] was over 10 µg/mL.

Regarding `O=C(Nc1ccc2c(c1)B(O)OC21CC1)c1ccc(F)cc1C(F)(F)F` [compound 133], the “Selectivity Index (L929 IC50 / T. b. brucei IC50)” value in data set [1] is recorded as 100. The IC50 in data set [1] (read-out: T.b. brucei IC50) came to 0.191 µg/mL. For the same compound, the IC50 at 72 h in data set [2] is over 10 µg/mL.

With `COc1ccccc1C(=O)Nc1ccc2c(c1)B(O)OC2(C)C` [compound 46, N-(1-Hydroxy-3,3-dimethyl-1,3-dihydro-benzo[c][1,2]oxaborol-6-yl)-2-methoxy-benzamide], the IC50 in data set [1] (read-out: T.b. brucei IC50) was found to be 3.01 µg/mL. The IC50 at 72 h in data set [2] was over 10 µg/mL.
